Assay results published in patent publication US10919941B2, “Functional lipid constructs” (KODE BIOTECH LIMITED, priority 2007, dated 2021).
No end group written: not given here.

Experiments:
Assay type in all cases: cell-based, human
[1] = tested on: Miltenberger antibody positive sera; assay: BioVue AHG card column agglutination serology of modified red blood cells; design: key: 0 or ‘−’ no agglutination; 0 or ‘−’ no agglutination; 1+ or 3=very weak agglutination; 1+ or 3=very weak agglutination; 2+ or 5=weak agglutination; 2+ or 5=weak agglutination; 3+ or 8=moderate strong agglutination; 3+ or 8=moderate strong agglutination; 4+ or 10/12=strong agglutination; 4+ or 10/12=strong agglutination; 4+ or 10/12=strong agglutination
[2] = tested on: Miltenberger Antibody Positive Panel; assay: Reactivity of modified RBCs against the Miltenberger Antibody Positive Panel; design: key to score vs panel 15 TAP2 / score vs panel 4 T7202 / score vs panel 8 T5896 / score vs panel 2 T217 / score vs panel 3 T165 / score vs panel 14 TAP1 / score vs panel 10 Mia / score vs panel 11 Mur / score vs panel 12 Gam / score vs panel 6 T6025 / score vs panel 7 T8445 / score vs panel 9 MIII / score vs panel 13 BoxH / reactivity with Panel Serum #7 (T8445) / agglutination score, Panel Serum #7 (T8445): 0 or ‘−’ no agglutination; 0 or ‘−’ no agglutination; 1+ or 3=very weak agglutination; 1+ or 3=very weak agglutination; 2+ or 5=weak agglutination; 2+ or 5=weak agglutination; 3+ or 8=moderate strong agglutination; 3+ or 8=moderate strong agglutination; 4+ or 10/12=strong agglutination; 4+ or 10/12=strong agglutination; 4+ or 10/12=strong agglutination
[3] = tested on: sera reactive with modified RBCs; assay: Neutralisation of reactive sera with free peptide, retested against modified RBCs (BioVue); design: key: 0 or ‘−’ no agglutination; 0 or ‘−’ no agglutination; 1+ or 3=very weak agglutination; 1+ or 3=very weak agglutination; 2+ or 5=weak agglutination; 2+ or 5=weak agglutination; 3+ or 8=moderate strong agglutination; 3+ or 8=moderate strong agglutination; 4+ or 10/12=strong agglutination; 4+ or 10/12=strong agglutination; 4+ or 10/12=strong agglutination; settings: cells modified with the peptide-lipid construct M22; AHG test in BioVue
Description: Optionally, where F is a peptide, the method includes the preliminary step of: • Adding an amount of the peptide to the sample of the serum; where the amount of the peptide is sufficient to neutralize non-specific agglutination or confirm specificity of the reactive antibody.

[4] = tested on: antibody negative serums; assay: False positive reactions of modified RBCs with antibody negative serums/plasma; design: key to Reaction score BioVue AHG, PAC samples 1-46, 49, 50, 52, 53 / Reaction score BioVue AHG, PAC sample 47 / Reaction score BioVue AHG, PAC sample 48 / Reaction score BioVue AHG, PAC sample 51 / agglutination score, T series serum 2 / agglutination score, T series serum 42 / agglutination score, T series serum 63 / agglutination score, T series serum 62 / agglutination score, T series serum 7 / agglutination score, T series serum 20 / agglutination score, T series serum 48 / agglutination score, T series serum 22 / agglutination score, T series serum 39 / agglutination score, T series serum 23 / agglutination score, T series serum 30 / agglutination score, T series serum 4 / agglutination score, T series serum 31 / agglutination score, T series serum 44 / agglutination score, T series serum 61 / agglutination score, T series serum 18 / agglutination score, T series serum 21 / agglutination score, T series serum 28 / agglutination score, T series serum 55 / agglutination score, false positive serum T18 / agglutination score, false positive serum T21 / agglutination score, false positive serum T28 / agglutination score, false positive serum T55 / agglutination score, false positive serum T78 / agglutination score, false positive serum T92: 0 or ‘−’ no agglutination; 0 or ‘−’ no agglutination; 1+ or 3=very weak agglutination; 1+ or 3=very weak agglutination; 2+ or 5=weak agglutination; 2+ or 5=weak agglutination; 3+ or 8=moderate strong agglutination; 3+ or 8=moderate strong agglutination; 4+ or 10/12=strong agglutination; 4+ or 10/12=strong agglutination; 4+ or 10/12=strong agglutination
[5] = Australia, Melb Path, 45 tested, construct 50 μg/ml
[6] = Australia, RNSH, 500 tested, construct 50 μg/ml
[7] = Malaysia, UMMC, 749 tested, construct 50 μg/ml
[8] = Philippines, Metrop Hosp, 60 tested, construct 50 μg/ml
[9] = blood donor plasma, construct 50 μg/ml (2 hours, 37° C.)

M22: DOPE peptide-lipid construct: MUTK peptide SQTNDKHKRD, leader c, spacer CMG(2) (SQTNDKHKRDC; also: DOPE peptide-lipid construct via leader Cys, spacer CMG(2))
BioVue score vs TAP1 ([1]; construct 50 μg/ml): 8 | BioVue score vs positive sample 2 T217 (T) ([1]; construct 50 μg/ml): 0 | BioVue score vs positive sample 3 T165 (Mur) ([1]; construct 50 μg/ml): 0 | BioVue score vs positive sample 4 T7202 (M) ([1]; construct 50 μg/ml): 0 | BioVue score vs positive sample 8 T5896 (M + K + Mur) ([1]; construct 50 μg/ml): 0 | TAP 2 Serum BioVue AHG score ([1]; construct 100 μg/ml): 0 | sensitivity and specificity towards a human polyclonal antibody panel compared with sequence 1 ([2]; MUT peptides, prior art sequence 1): superior sensitivity and specificity | score vs panel 2 T217 ([2]; Table 8, construct 200 μg/ml): 0 | score vs panel 3 T165 ([2]; Table 8, construct 200 μg/ml): 0 | score vs panel 4 T7202 ([2]; Table 8, construct 200 μg/ml): 0 | score vs panel 6 T6025 ([2]; Table 8, construct 200 μg/ml): 10 | score vs panel 7 T8445 ([2]; Table 8, construct 200 μg/ml): 0 | score vs panel 8 T5896 ([2]; Table 8, construct 200 μg/ml): 0 | score vs panel 9 MIII ([2]; Table 8, construct 200 μg/ml): 0 | score vs panel 10 Mia ([2]; Table 8, construct 200 μg/ml): 0 | score vs panel 11 Mur ([2]; Table 8, construct 200 μg/ml): 0 | score vs panel 12 Gam ([2]; Table 8, construct 200 μg/ml): 3 | score vs panel 15 TAP2 ([2]; Table 8, construct 200 μg/ml): 0 | Pre-neutralisation serology, PAC74 [3]: 8 | Pre-neutralisation serology, TAP1 [3]: 8 | % Positive, BioVue ([4]; Australia, CSL, 100 tested, construct 50 μg/ml): 3.0% | Number Positive, BioVue ([4]; Australia, CSL, 100 tested, construct 50 μg/ml, 3 h RT then 18 h 4° C.): 3 | % Positive, BioVue [4, 5]: 4.5% | Number Positive, BioVue [4, 5]: 2 | % Positive, BioVue [4, 6]: 0.4% | % Positive, DiaMed [4, 6]: 0.4% | Number Positive, BioVue [4, 6]: 2 | Number Positive, DiaMed [4, 6]: 2 | % Positive, BioVue [4, 7]: 2.5% | Number Positive, BioVue [4, 7]: 19 | % Positive, Tube [4, 8]: 0% | Number Positive, Tube [4, 8]: 0 | Reaction score BioVue AHG, PAC sample 47 [4, 9]: 0 | Reaction score BioVue AHG, PAC sample 48 [4, 9]: 0 | Reaction score BioVue AHG, PAC sample 51 [4, 9]: 0 | Reaction score BioVue AHG, PAC samples 1-46, 49, 50, 52, 53 [4, 9]: 0 | % False Positives ([4]; panel of blood donor plasma samples (PAC), BioVue AHG, construct 50 μg/ml): 0%
